Reference: US5861439A, “Method for enhanced electrotransport agent delivery” (priority 1994, dated 1999)
Read-outs that look alike come from different tables or passages of the source.

Tests used:
[1] = test system: skin; settings: relative to sotalol alone (control); no current; cited from earlier work
[2] = test system: skin; settings: cited from earlier work; for rate of electrotransport of sotalol (in words): compared to electrotransport without DDAA or azone (control)
[3] = test system: human cadaver skin; settings: for increase in the rate of delivery of ketoprofen: electrotransport, versus control (no enhancer); for Normalized Skin Resistance: ketoprofen electrotransport, steady state, divided by control (no enhancer), 100 μA/cm^2, 32° C.
Procedure: (§1) Skin strips having a thickness of 1 mm were removed from a human cadaver with an electric dermatome. These skin strips were placed in polyethylene bags, sealed and placed in a refrigerator at 4° C. for temporary storage. Prior to use in an electrotransport cell, the skin strips were placed in 1 liter beakers containing water at 60° C. for about 90 seconds, and gently stirred. The skin strips were then removed, and placed onto the absorbent side of a piece of BENCHKOTE fabric with their dermis side down. The epidermis was removed from each strip with a round-tip spatula, and flat tipped tweezers to retain the dermis. Each epidermis, stratum corneum side up, was then transferred to a 5 cm deep PYREX glass tray filled with water. Each floating epidermis was stretched essentially flat, and then removed from the water, and 2.2 cm diameter disks of each epidermis were punched out of areas having no observable surface damage. The disks were stored at 4° C. in a sealed container with water droplets to maintain their moisture.
(§2) The disks were mounted between the donor and receptor compartments, with the stratum corneum side facing the donor compartment, of a 2-compartment polycarbonate electrotransport permeation cell. The volume of each compartment was about 2 mL and the area between the two compartments, ie, the exposed area for transport, was about 1.26 cm^2.
(§3) An aqueous solution of the drug being transdermally delivered and the selected permeation enhancer composition, if any, was placed in the donor compartment. Dulbecco's phosphate buffered saline (approximately 0.15N NaCl, pH 7.0) was placed in the receptor compartment.
(§4) The rate of transport of drug and the electrical resistance of the skin were monitored throughout the experiments while applying an electric current.
(§5) The cell was maintained at 32° C. by a Haake Model D1 heating block/water bath. The electrodes were connected to a galvanostat, which applied a constant current of 126 μA (current density of 100 μA/cm^2) and monitored the voltage drop across the skin by placing two Ag/AgCl junction reference electrodes, one each in the donor and receptor solutions, and measuring the voltage difference (AV) between the electrodes.
(§6) The resistance of the skin (R) was obtained from Ohm's law:
(§7) where i equals the applied current (ie, 126 μA).
The following experiments were conducted to assess the effect of one composition of the invention, containing ethanol and dodecanol, on the transdermal delivery of sodium ketoprofen (ketoprofen anions) by electrotransport from a cathodic electrode. The electrotransport delivery of ketoprofen in the presence of various enhancers was assessed side-by-side for comparative purposes. The enhancers used were as follows: (i) ethanol alone; (ii) dodecanol alone; (iii) no enhancer; (iv) ethanol and dodecanol. […] A silver chloride composite polymer electrode (cathode) was placed in the donor compartment, and a silver foil electrode (anode) was placed in the receptor compartment.
Each experiment was started by connecting the power source to the electrodes, and samples were automatically taken from the receptor compartment every one to two hours, except for overnight experimentation, using an Isco Model 2230 autosampler and a metering pump. The concentration of ketoprofen in the samples was determined by high performance liquid chromatography (HPLC) using a Shimadzu Model SCL-6B chromatograph. Each run was conducted in triplicate, including the control, to minimize errors. All cells were set-up with tissue from the same cadaver. The selected permeation enhancer composition was placed in the donor compartment, while the control cell's donor compartment contained no enhancer.

[4] = test system: human cadaver skin; settings: for Normalized Skin Resistance (after 5 hrs): metoclopramide electrotransport, n=3, 100 μA/cm^2, 32° C.
Procedure: as §1, §2, §3, §4, §5, §6, §7
The experimental conditions were identical to those described in Example 1, except an aqueous solution of metoclopramide HCl, instead of sodium ketoprofen, was placed in the donor compartment. In addition, the silver chloride cathode was placed in the receptor compartment and the silver foil anode was placed in the donor compartment since metoclopramide ions are cationic as opposed to ketoprofen ions which are anionic. The concentration of metoclopramide in the donor solution was about 100 mg metoclopramide/mL, and saline pH 7 was placed in the receptor compartment. The system was maintained at 32° C. and a constant electric current of 100 μA/cm^2 was applied throughout the procedure.
The mass flux and skin resistance values were normalized versus the control. […] The skin resistance (which was calculated from the measured cell voltage ΔV using Ohm's law, […]) was also normalized with respect to the value obtained by electrotransport of metoclopramide in the absence of any permeation enhancer (rightmost column).

Compound: CCCCCCCCCCCCN1CCCCCC1=O [azone]
- rate of passive permeation of sotalol (in words) [1]: increase the rate of passive permeation
- rate of electrotransport of sotalol (in words) [2]: actually reduced the rate of electrotransport delivery of the agent

Compound: CCCCCCCCCCCCO [Dodecanol, dodecanol]
- reduction in skin resistance [3]: ~60%
- increase in the rate of delivery of ketoprofen [3]: 93%
- Normalized Skin Resistance ([3]; enhancer dodecanol <100 mM): 0.39

Compound: CC(C)NCC(O)c1ccc(NS(C)(=O)=O)cc1 (centres unmarked) [sotalol]
- rate of delivery of sotalol with passage of an electric current (in words) ([2]; compared to its passive rate (control)): increase the rate of delivery of sotalol compared to that of its passive rate

Compound: N, N-dimethylamino acetate [DDAA]
- rate of passive permeation of sotalol (in words) [1]: increase the rate of passive permeation
- rate of electrotransport of sotalol (in words) [2]: actually reduced the rate of electrotransport delivery of the agent

Compound: CCO [Ethanol, ethanol]
- reduction in skin resistance [3]: > 50%
- increase in the rate of delivery of ketoprofen [3]: 24%
- Normalized Skin Resistance ([3]; enhancer 25% v/v ethanol): 0.47
- effect of difference in ethanol concentration (25% v/v alone, 20% v/v with dodecanol) ([3]; in words, said to be confirmed in Example 2): does not significantly alter its effect
- mass flux of metoclopramide (in words) [4]: not to enhance, but to actually decrease, the mass flux of metoclopramide
- Normalized Skin Resistance (after 5 hrs) ([4]; ethanol 10 wt %, versus no enhancer): 1.32
- Normalized Skin Resistance (after 5 hrs) ([4]; ethanol 20 wt %, versus no enhancer): 1.13
- Normalized Skin Resistance (after 5 hrs) ([4]; ethanol 30 wt %, versus no enhancer): 1.26
- resistance of the skin during electrotransport delivery of metoclopramide (in words) ([4]; ethanol alone, versus no enhancer): increase the resistance of the skin
